Literature values in patent publication US20090252791A1, “PHARMACEUTICAL COMPOSITIONS COMPRISING A TRIPTAN AND A NONSTEROIDAL ANTI-INFLAMMATORY DRUG” (priority 2008, published 2009).

## CNS(=O)(=O)Cc1ccc2[nH]cc(CCN(C)C)c2c1 [Sumatriptan, 3-[2-(dimethylamino)ethyl]-N-methyl-1H-indole-5-methanesulfonamide]
  Solubility in water and in saline: readily soluble
